Laboratory results published in ChEMBL document CHEMBL5120880, “Peptidomimetics: An Overview of Recent Medicinal Chemistry Efforts toward the Discovery of Novel Small Molecule Inhibitors” (J Med Chem, 2022).
≈ marks a conversion by molar mass, not a printed value. Square brackets hold non-standard residues; d marks the D form. Peptide text beside a SMILES is read from it. * marks the point of attachment. Pro(cis-4-OPh) = O=C(O)[C@@H]1C[C@H](Oc2ccccc2)CN1; Bip = N[C@@H](Cc1ccc(-c2ccccc2)cc1)C(=O)O; X1 = CCCCCCCCCCCCCCCCCCS(=O)(=O)CCN*; Tle = CC(C)(C)[C@H](N)C(=O)O; X2 = CCCCCCCCCCCCCCCCCCSCCN*; NMeA = CN[C@@H](C)C(=O)O

Tests used:
[1] = Inhibition of FITC-labeled NS4A binding to HCV NS3 (4 to 182 residues) expressed in Escherichia coli […] (DE3) incubated for 60 mins by fluorescence anisotropy based competition assay; set-up: species or system Hepacivirus hominis
[2] = Binding affinity to beta-catenin/APC (unknown origin) assessed as inhibition constant; set-up: species or system Homo sapiens
[3] = molecular target: Catenin beta-1/Cadherin-1 (Homo sapiens, UniProt P12830+P35222); assay: Binding affinity to beta-catenin/E-cadherin (unknown origin) assessed as inhibition constant; format: protein assay
[4] = test system: Klebsiella pneumoniae subsp. ozaenae; assay: Antibacterial activity against Klebsiella pneumoniae A6030827 assessed as minimal inhibitory concentration; format: functional
[5] = molecular target: T1, Enoyl-[acyl-carrier-protein] reductase [NADH] FabI (Escherichia coli K-12, UniProt P0AEK4); assay: Inhibition of Escherichia coli […] assessed as measuring NADH consumption rate
T1 sequence (P0AEK4 whole entry): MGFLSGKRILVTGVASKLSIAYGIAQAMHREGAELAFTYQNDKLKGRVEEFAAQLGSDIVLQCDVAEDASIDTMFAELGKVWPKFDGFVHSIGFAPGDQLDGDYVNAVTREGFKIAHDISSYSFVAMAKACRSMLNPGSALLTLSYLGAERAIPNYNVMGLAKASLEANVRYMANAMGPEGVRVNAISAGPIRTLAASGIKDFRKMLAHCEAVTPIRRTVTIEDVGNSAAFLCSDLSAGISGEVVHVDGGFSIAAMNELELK

Acinetobacter baumannii = assay: Antibacterial activity against Acinetobacter baumannii ATCC BAA1605 assessed as minimal inhibitory concentration; format: functional
Staphylococcus aureus = assay: Antibacterial activity against Staphylococcus aureus ATCC 29213 assessed as minimal inhibitory concentration; format: functional
[6] = test system: Middle East respiratory syndrome-related coronavirus; assay: microbe, parasite or virus in culture
[7] = test system: Middle East respiratory syndrome-related coronavirus; assay: Antiviral activity against MERS-CoV by cell based assay; format: functional, organism-based
SARS-CoV-2 = assay: microbe, parasite or virus in culture; settings: Severe acute respiratory syndrome coronavirus 2
[8] = test system: Feline infectious peritonitis virus; assay: microbe, parasite or virus in culture; settings: Alphacoronavirus 1
SARS-CoV = assay: microbe, parasite or virus in culture; settings: Severe acute respiratory syndrome-related coronavirus
Murine hepatitis virus = assay: microbe, parasite or virus in culture; settings: Murine coronavirus
FaDu = assay: Antitumor activity against human FaDu cells assessed as cell growth inhibition; format: functional, cell-based
Hep 3B2 = assay: Antitumor activity against human Hep3B cells assessed as cell growth inhibition; format: functional, cell-based
BT-474 = assay: Antitumor activity against human BT-474 cells assessed as cell growth inhibition; format: functional, cell-based
NALM-6 = assay: Antitumor activity against human NALM-6 cells assessed as cell growth inhibition; format: functional, cell-based
HCC1954 = assay: Antitumor activity against human HCC1954 cells assessed as cell growth inhibition; format: functional, cell-based
Escherichia coli = assay: Antibacterial activity against Escherichia coli AG100 assessed as minimal inhibitory concentration; format: functional
[9] = Inhibition of Acinetobacter baumannii […] assessed as measuring NADH consumption rate
[10] = Antitumor activity against human UM-SCC-5 cells assessed as cell growth inhibition; format: functional, cell-based
[11] = Antitumor activity against human UM-SCC-38 cells assessed as cell growth inhibition; format: functional, cell-based
HCT-116 = assay: Cytotoxicity against human HCT-116 cells assessed as cell growth inhibition; format: functional, cell-based
MDA-MB-468 = assay: Cytotoxicity against human MDA-MB-468 cells assessed as cell growth inhibition; format: functional, cell-based
BT-20 = assay: Cytotoxicity against human BT-20 cells assessed as cell growth inhibition; format: functional, cell-based
MDA-MB-231 = assay: Cytotoxicity against human MDA-MB-231 cells assessed as cell growth inhibition; format: functional, cell-based
SW480 = assay: Cytotoxicity against human SW480 cells assessed as cell growth inhibition; format: functional, cell-based
A549 = assay: Cytotoxicity against human A549 cells assessed as cell growth inhibition; format: functional, cell-based
Hepatitis C virus [12] = assay: Antiviral activity against HCV; format: functional, organism-based, Hepacivirus hominis
Hepatitis C virus [13] = assay: Antiviral activity against HCV genotype 1b/3a NS5A infected in human Huh-7 cells by phenotypic assay; format: functional, organism-based, Hepacivirus hominis
Hepatitis C virus [14] = assay: Antiviral activity against HCV genotype 1b/6a NS5A infected in human Huh-7 cells by phenotypic assay; format: functional, organism-based, Hepacivirus hominis

Sequence of Catenin beta-1/Cadherin-1 (P35222 whole entry): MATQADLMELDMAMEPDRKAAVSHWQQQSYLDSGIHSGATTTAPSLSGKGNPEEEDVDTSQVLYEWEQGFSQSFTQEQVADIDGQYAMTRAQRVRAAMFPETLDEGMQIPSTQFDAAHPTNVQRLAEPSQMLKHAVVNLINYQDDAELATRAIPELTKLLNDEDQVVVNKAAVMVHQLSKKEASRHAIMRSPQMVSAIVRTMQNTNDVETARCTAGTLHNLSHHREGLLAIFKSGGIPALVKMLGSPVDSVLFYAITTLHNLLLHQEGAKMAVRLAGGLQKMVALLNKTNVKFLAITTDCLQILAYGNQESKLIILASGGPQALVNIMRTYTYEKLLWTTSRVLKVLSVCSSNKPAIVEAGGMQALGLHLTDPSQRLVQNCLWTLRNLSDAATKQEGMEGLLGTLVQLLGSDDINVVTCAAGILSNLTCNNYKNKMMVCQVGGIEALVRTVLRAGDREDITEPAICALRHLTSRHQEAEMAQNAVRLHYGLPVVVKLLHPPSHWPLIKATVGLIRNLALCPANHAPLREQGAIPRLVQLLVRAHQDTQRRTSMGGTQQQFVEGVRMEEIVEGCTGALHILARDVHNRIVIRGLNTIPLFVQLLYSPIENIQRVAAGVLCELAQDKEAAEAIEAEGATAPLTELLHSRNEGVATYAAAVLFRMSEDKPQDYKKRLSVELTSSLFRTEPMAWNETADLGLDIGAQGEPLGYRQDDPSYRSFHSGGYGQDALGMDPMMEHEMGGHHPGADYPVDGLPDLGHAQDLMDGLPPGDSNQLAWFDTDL
Sequence of Catenin beta-1/Cadherin-1 (P12830 whole entry): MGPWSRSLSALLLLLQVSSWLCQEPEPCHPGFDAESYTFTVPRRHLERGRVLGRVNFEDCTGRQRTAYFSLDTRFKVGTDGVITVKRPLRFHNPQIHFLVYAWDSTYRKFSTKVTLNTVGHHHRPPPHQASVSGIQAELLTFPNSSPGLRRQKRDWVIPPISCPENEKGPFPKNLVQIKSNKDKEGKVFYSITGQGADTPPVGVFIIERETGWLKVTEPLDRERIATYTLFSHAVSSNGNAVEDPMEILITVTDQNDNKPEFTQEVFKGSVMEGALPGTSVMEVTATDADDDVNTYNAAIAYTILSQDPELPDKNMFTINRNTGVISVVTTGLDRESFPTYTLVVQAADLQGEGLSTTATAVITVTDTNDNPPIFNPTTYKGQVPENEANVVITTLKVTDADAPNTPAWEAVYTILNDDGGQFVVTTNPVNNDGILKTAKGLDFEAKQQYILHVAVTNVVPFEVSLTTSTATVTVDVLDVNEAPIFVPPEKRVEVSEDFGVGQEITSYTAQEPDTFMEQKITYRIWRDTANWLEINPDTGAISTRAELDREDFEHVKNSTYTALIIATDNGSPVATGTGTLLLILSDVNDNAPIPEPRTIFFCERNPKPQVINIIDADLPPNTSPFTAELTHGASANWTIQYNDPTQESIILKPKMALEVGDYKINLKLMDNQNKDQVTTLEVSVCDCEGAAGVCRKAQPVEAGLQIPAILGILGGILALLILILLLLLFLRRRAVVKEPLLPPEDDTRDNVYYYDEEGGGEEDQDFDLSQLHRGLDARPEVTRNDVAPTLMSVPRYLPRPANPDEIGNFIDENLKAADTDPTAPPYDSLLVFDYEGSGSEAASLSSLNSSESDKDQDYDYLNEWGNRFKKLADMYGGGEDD

Question: With `CCCCCCNC(=O)c1ncc(C(=O)NCCCCNC(=N)N)[nH]1` as the compound, how does the IC50 [1] read?
Answer: 4.7 µM

Question: Which IC50 [1] does the source give for `CNC(=O)CNC(=O)c1ncc(C(=O)NCCCCNC(=N)N)[nH]1` here?
Answer: 1.91 µM

Question: Which Ki [2] does the source give for `O=C(O)CC[C@H](NC(=O)[C@H](Cc1nnn[nH]1)NC(=O)[C@H](Cc1ccc2ccccc2c1)NC(=O)c1cc2c(Cl)cccc2[nH]1)C(=O)Nc1ccc(OC(F)(F)F)cc1` here?
Answer: 173 µM

Question: What about the Ki [3] of the same compound?
Answer: 13 µM

Question: Which MIC [4] does the source give for `Cc1c(CN(C)C(=O)/C=C/c2cnc3c(c2)NC[C@@H](N2C[C@@H](C)O[C@@H](C)C2)C(=O)N3)oc2ccccc12` here?
Answer: 16 µg/mL (≈ 31.8 µM)

Question: What about the IC50 [5] of the same compound?
Answer: < 0.01 µM

Question: What about the MIC (Acinetobacter baumannii) of the same compound?
Answer: ≤ 4 µg/mL

Question: What about the MIC (Staphylococcus aureus) of the same compound?
Answer: ≤ 4 µg/mL

Question: For `CC(C)C[C@H](NC(=O)OC1CCCCC1)C(=O)N[C@@H](C[C@H]1CCNC1=O)C(O)S(=O)(=O)O` (stereo partly specified), which IC50 [6] is on record?
Answer: 0.15 µM

Question: And the EC50 [7]?
Answer: 0.08 µM

Question: And the IC50 (SARS-CoV-2)?
Answer: 3.5 µM

Question: What about the EC50 [8] of the same compound?
Answer: 0.07 µM

Question: And the IC50 (SARS-CoV)?
Answer: 3.8 µM

Question: And the EC50 (Murine hepatitis virus)?
Answer: 0.08 µM

Question: With `CCCCCCCCCCCCCCCCCCS[C@H]1C[C@@H](C(=O)NCC(c2ccccc2)c2ccccc2)N(C(=O)[C@@H](NC(=O)[C@H](C)NC)C(C)(C)C)C1` as the compound, how does the EC50 (FaDu) read?
Answer: 5.4 µM

Question: And the EC50 (Hep 3B2)?
Answer: 12.4 µM

Question: What about the EC50 (BT-474) of the same compound?
Answer: 10.8 µM

Question: What about the EC50 (NALM-6) of the same compound?
Answer: 26.9 µM

Question: What about the EC50 (HCC1954) of the same compound?
Answer: 17.5 µM

Question: With `Cc1oc2c(N)cccc2c1CN(C)C(=O)/C=C/c1cnc2c(c1)N[C@H](C)[C@H](N)C(=O)N2` as the compound, how does the MIC (Escherichia coli) read?
Answer: ≤ 4 µg/mL

Question: What about the IC50 [9] of the same compound?
Answer: < 0.01 µM

Question: What about the MIC (Acinetobacter baumannii) of the same compound?
Answer: ≤ 4 µg/mL

Question: And the MIC (Staphylococcus aureus)?
Answer: ≤ 4 µg/mL

Question: For `Cc1c(CN(C)C(=O)/C=C/c2cnc3c(c2)CC[C@@H](N)C(=O)N3)oc2ccccc12.Cl`, which MIC [4] is on record?
Answer: ≤ 4 µg/mL

Question: And the MIC (Escherichia coli)?
Answer: ≤ 4 µg/mL

Question: And the IC50 [5]?
Answer: < 0.01 µM

Question: And the IC50 [9]?
Answer: < 0.01 µM

Question: What about the MIC (Acinetobacter baumannii) of the same compound?
Answer: ≤ 4 µg/mL

Question: What about the MIC (Staphylococcus aureus) of the same compound?
Answer: ≤ 4 µg/mL

Question: Which results are given for `CC(C)C[C@H](NC(=O)OC1CCC(F)(F)CC1)C(=O)N[C@@H](C[C@H]1CCNC1=O)C(O)S(=O)(=O)O` (stereo partly specified)?
Answer: IC50 [6]: 0.08 µM; EC50 [7]: 0.21 µM; IC50 (SARS-CoV-2): 1.6 µM; EC50 [8]: 0.12 µM; IC50 (SARS-CoV): 2.2 µM; EC50 (Murine hepatitis virus): 0.11 µM

Question: Which results are given for `CCCCCCCCCCCCCCCCCCSCCNC(=O)[C@H](Cc1ccc(-c2ccccc2)cc1)NC(=O)[C@@H]1C[C@H](Oc2ccccc2)CN1C(=O)[C@@H](NC(=O)[C@H](C)NC)C(C)(C)C` (H-[NMeA][Tle][Pro(cis-4-OPh)][Bip]-X2)?
Answer: EC50 [10]: 0.96 µM; EC50 [11]: 0.33 µM

Question: Which IC50 (HCT-116) does the source give for `CCOC(=O)CC[C@H](NC(=O)[C@H](Cc1nn[nH]n1)NC(=O)[C@H](Cc1ccc2ccccc2c1)NC(=O)c1cc2cc(Cl)ccc2[nH]1)C(=O)Nc1ccc(OC(F)(F)F)cc1` here?
Answer: 69.4 µM

Question: And the IC50 (MDA-MB-468)?
Answer: 7.25 µM

Question: And the IC50 (BT-20)?
Answer: 16.5 µM

Question: And the IC50 (MDA-MB-231)?
Answer: 12.3 µM

Question: What about the IC50 (SW480) of the same compound?
Answer: 14.1 µM

Question: What about the IC50 (A549) of the same compound?
Answer: 86.4 µM

Question: With `Cc1c(CN(C)C(=O)/C=C/c2cnc3c(c2)NC[C@@H](N)C(=O)N3)oc2ccccc12.Cl` as the compound, how does the MIC [4] read?
Answer: < 4 µg/mL

Question: What about the MIC (Escherichia coli) of the same compound?
Answer: < 4 µg/mL

Question: What about the IC50 [5] of the same compound?
Answer: < 0.01 µM

Question: What about the IC50 [9] of the same compound?
Answer: < 0.01 µM

Question: And the MIC (Acinetobacter baumannii)?
Answer: < 4 µg/mL

Question: What about the MIC (Staphylococcus aureus) of the same compound?
Answer: < 4 µg/mL

Question: With `NC(=O)CC[C@H](NC(=O)[C@H](Cc1nn[nH]n1)NC(=O)[C@H](Cc1ccc2ccccc2c1)NC(=O)c1cc2cc(Cl)ccc2[nH]1)C(=O)Nc1ccc(OC(F)(F)F)cc1` as the compound, how does the IC50 (HCT-116) read?
Answer: 63.9 µM

Question: And the IC50 (MDA-MB-468)?
Answer: 29.2 µM

Question: And the IC50 (BT-20)?
Answer: 38.4 µM

Question: And the IC50 (MDA-MB-231)?
Answer: 34.3 µM

Question: And the IC50 (SW480)?
Answer: 28.2 µM

Question: What about the IC50 (A549) of the same compound?
Answer: 60.3 µM

Question: With `COC(=O)N[C@H](C(=O)N1CCC[C@H]1C(=O)Nc1cccc(-c2ccc3c(c2)C(F)(F)c2cc(-c4cnc([C@@H]5CCCN5C(=O)[C@@H](NC(=O)OC)C(C)C)[nH]4)ccc2-3)c1)C(C)C` as the compound, how does the EC50 (Hepatitis C virus [12]) read?
Answer: < 50 pM

Question: What about the EC50 (Hepatitis C virus [13]) of the same compound?
Answer: > 0.0005 µM

Question: What about the EC50 (Hepatitis C virus [14]) of the same compound?
Answer: 0.000275 µM

Question: Which IC50 [1] does the source give for `CCCCCNC(=O)c1ncc(C(=O)NCCCCNC(=N)N)[nH]1` here?
Answer: 1.91 µM

Question: For `CCCCCCCCCCCCCCCCCCS(=O)(=O)CCNC(=O)[C@H](Cc1ccc(-c2ccccc2)cc1)NC(=O)[C@@H]1C[C@H](Oc2ccccc2)CN1C(=O)[C@@H](NC(=O)[C@H](C)NC)C(C)(C)C` (H-[NMeA][Tle][Pro(cis-4-OPh)][Bip]-X1), which EC50 [10] is on record?
Answer: 0.73 µM

Question: What about the EC50 [11] of the same compound?
Answer: 0.14 µM
